# Measurements: PMC6883931 (Frontiers in Molecular Neuroscience, 2019)
# Values joined by “and” are separate entries in the source; they are usually repeats but may differ in a detail not shown here. Equal values may be shown once. Read-outs that look alike come from different tables or passages of the source.
# Experiments:
# GlyR = tested on: GlyR; design: method as in Breitinger et al., 2016; details: ref Breitinger et al., 2016, cited from earlier work; for on-rate of current enhancement: saturating concentrations; for EC50: read-out: EC50 for augmentation of glycine-mediated responses
# Male Swiss Webster mice [1] = experiment: Tactile sensitivity (von Frey) test, paw withdrawal threshold; type: in vivo; details: for PWT ratio: individual mice and avg
# Protocol: (§1) See Supplementary Material S1 for experimental details. On the day of the experiment, mice were weighed and then fasted for 5–6 h to reduce variability in initial blood glucose levels (BGL). Mice had been accustomed to the test apparatus for 2–3 h on two separate days before experiments. Two hours before testing, mice were acclimatized to the measuring apparatus. For hotplate tests, mice were accustomed to the testing condition by placing them one by one on a switched off hotplate at room temperature for the set cut off time of 30 s. One hour before testing, baseline measurements for touch sensitivity were recorded. For both experiments, mice were then injected according to protocol. Blood glucose level was measured before and after injections (Figure 3A).
# Mice were divided into four experimental groups (see main text). The investigator performing the measurements was blinded to treatment groups and to the blood glucose readings. All mice were measured for their Paw withdrawal threshold (PWT) using von Frey filaments on at least one occasion before the testing day to reduce the stress or surprise from the experiment. We used the up-and-down method to determine pain withdrawal thresholds (PWT; Bradman et al., [2015]) with 8 mN as the starting value (see Supplementary Material for details). Baseline PWT values for each mouse were determined before treatment. […] Measurements were limited to the time window of 5 min after the second injection (strychnine or vehicle) due to the fast elimination kinetics of low doses of strychnine.
# • (i) Baseline PWT determination for each mouse, 30 min prior to the experiment; • (ii) at time t = 0, mice were injected with glucose (2 g/kg) or vehicle • (iii) at t = 30 min, mice were injected with strychnine (0.2 or 0.5 mg/kg) or vehicle; • (iv) at t = 35 min pain-related behavior was assessed.
# Von Frey Experiment – The investigator performing the measurements was blinded to treatment groups and to the blood glucose readings. All mice were measured for their paw withdrawal threshold using the Von Frey filaments on at least one occasion before the testing day. That was done to reduce the stress or surprise that might result from exposure to new conditions on the day of the experiment. A baseline reading for each mouse is also taken before the test with the consideration to leave at least one-day gab between baseline and experiment measurement to minimize any effect of repetitive measurement. […]
# We used the up-and-down method to determine pain withdrawal thresholds (PWT) (Bradman et al., 2015). To assess the starting force, baseline 50% PWT was measured in five naïve mice (20-35 g) by application of von Frey hairs in an ascending order of their applied force. […] Baseline PWT values for each mouse were determined before treatment. […]
# Male Swiss Webster mice [2] = experiment: Hotplate test (55°C), latency until pain-related reaction; type: in vivo
# Protocol: as §1
# The investigator performing the measurements was blinded to treatment groups and to the blood glucose readings.
# [3] = tested on: recombinant α1, α1-β, and α3 GlyRs; design: method as in Breitinger et al., 2015; Breitinger and Breitinger, 2016; details: HEK293 cells, ref Breitinger et al., 2015, 2016; cited from earlier work
# [4] = target: T1, recombinant α3L GlyRs expressed in HEK293 cells (Homo sapiens, UniProt O75311); experiment: Whole-cell patch-clamp recordings of GlyR-transfected HEK293 cells; type: cell-based; details: for EC50 / IC50: n = 7 cells; for EC50: mean ± SEM, read-out: EC50 of glycine-induced currents; for IC50: IC50 of strychnine inhibition; for IC50 / Ki: 60 μM glycine; for Ki: Ki of strychnine (Cheng-Prusoff)
# T1 construct: expressed in transfected cells; host or cells: HEK293
# T1 sequence (O75311 34-464): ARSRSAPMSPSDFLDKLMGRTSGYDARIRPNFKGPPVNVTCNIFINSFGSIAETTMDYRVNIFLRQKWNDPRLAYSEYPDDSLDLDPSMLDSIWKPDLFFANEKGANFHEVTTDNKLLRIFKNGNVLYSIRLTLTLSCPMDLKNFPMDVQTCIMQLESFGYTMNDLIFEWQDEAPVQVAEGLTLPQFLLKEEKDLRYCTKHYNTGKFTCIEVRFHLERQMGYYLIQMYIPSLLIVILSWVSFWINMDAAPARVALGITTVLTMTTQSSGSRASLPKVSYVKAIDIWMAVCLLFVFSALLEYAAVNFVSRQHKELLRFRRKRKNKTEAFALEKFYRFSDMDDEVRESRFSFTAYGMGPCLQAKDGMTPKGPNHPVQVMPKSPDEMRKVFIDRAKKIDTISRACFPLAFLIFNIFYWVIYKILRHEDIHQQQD
# Protocol: Current responses from GlyR-transfected HEK293 cells were measured at room temperature (21–23°C) at a holding potential of −50 mV using a HEKA EPC10 amplifier (HEKA Electronics, Lambrecht, Germany) controlled by Pulse software (HEKA Electronics). Recording pipettes were pulled from borosilicate glass (World Precision Instruments, Berlin, Germany) using a Sutter P-97 horizontal puller (Sutter, Novato, CA, USA). Solutions were applied using an Octaflow system (NPI electronics, Tamm, Germany). The external buffer consisted of 135 mM NaCl, 5.5 mM KCl, 2 mM CaCl2, 1.0 mM MgCl2, and 10 mM Hepes (pH adjusted to 7.4 with NaOH); the internal buffer was 140 mM CsCl, 1.0 mM CaCl2, 2.0 mM MgCl2, 5.0 mM EGTA, and 10 mM Hepes (pH adjusted to 7.2 with CsOH). […] Dose-response data were fitted to the Hill equation (see Supplementary Material) to determine EC50 and IC50.
# Ki was calculated using the Cheng-Prusoff correction, significance was tested using one-way ANOVA with p < 0.05 considered significant. […] All data are means ± SEM; significance levels (relative to control) are indicated: *p ≤ 0.5; **p ≤ 0.01; ns, not significant.
# Cell Culture and Transfection – HEK293 cells were grown in 10 cm tissue culture Petri dishes in Eagle minimal essential medium (EMEM) (Lonza, Basel, Switzerland) supplemented with 10% FBS (Invitrogen, Karlsruhe, Germany) and penicillin/streptomycin (Sigma-Aldrich, Munich, Germany) at 5% CO2 and 37 °C in a water saturated atmosphere. For electrophysiological experiments, cells were plated on acetone treated glass coverslips in 24 well plates. Transfection was performed 1 day after cell passage using polyethyleneimine (PEI) (Sigma-Aldrich, Munich, Germany): 0.75 µg of receptor DNA and 1.0 µg of green fluorescent protein DNA were mixed in 50 µl EMEM; in a second Eppendorf tube, 3.5 µl PEI was added to 50 µl EMEM, mixed and combined with the DNA solution. After 20 min incubation at room temperature, the transfection solution was added dropwise to the cells. Measurements were performed 1-3 days after transfection.
# Electrophysiological Recordings and Data Analysis – Current responses from GlyR-transfected HEK293 cells were measured at room temperature (21-23°C) at a holding potential of -50 mV. Whole-cell recordings were performed using a HEKA EPC10 amplifier (HEKA Electronics, Lambrecht, Germany) controlled by Pulse software (HEKA Electronics). Recording pipettes were pulled from borosilicate glass (World Precision Instruments, Berlin, Germany) using a Sutter P-97 horizontal puller (Sutter, Novato, CA).
# mice = details: cited from earlier work; for LD50: mice, Patocka, 2009
compound,measurement,setting,value
"OC[C@H]1O[C@@H](O[C@H]2[C@H](O)[C@@H](O)C(O)O[C@@H]2CO)[C@H](O)[C@@H](O)[C@H]1O (mixture of isomers) [Lactose, lactose]",on-rate of current enhancement,GlyR,~ 1.5 h
"O=C(CO)[C@@H](O)[C@H](O)[C@H](O)CO [Fructose, fructose]",EC50,GlyR,6000 to 7000 µM
same,on-rate of current enhancement,GlyR,< 0.5 h
"OC[C@H]1OC(O)[C@H](O)[C@@H](O)[C@@H]1O (stereo partly shown) [Glucose, glucose]",time after which effects on pain-related behavior were fully developed,Male Swiss Webster mice [1]; glucose 2 g/kg IP,20 min
same,average normalized latency time,"Male Swiss Webster mice [2]; glucose 2 g/kg IP, no strychnine, normalized to baseline, mean ± SEM",1.79 ± 0.18
same,normalized response time,Male Swiss Webster mice [2]; glucose 2 g/kg pretreatment followed by 0.2 mg/kg strychnine,1.72 ± 0.44
same,normalized response time,Male Swiss Webster mice [2]; glucose 2 g/kg prior to 0.5 mg/kg strychnine challenge,0.74 ± 0.15
same,reduction of EC50 value,[3],2–4 fold
same,EC50,GlyR,6000 to 7000 µM
same,on-rate of current enhancement,GlyR,< 0.5 h
"NCC(=O)O [Glycine, glycine]",EC50,[4]; after overnight preincubation with 50 mM glucose,49.9 ± 5.3 µM
same,EC50,"[4]; control, no glucose preincubation (5.5 mM glucose in medium)",106 ± 16 µM
"O=C1C[C@@H]2OCC=C3CN4CC[C@]56c7ccccc7N1[C@H]5[C@H]2[C@H]3C[C@H]46 [Strychnine, strychnine]",IC50,[4]; absence of glucose,0.0307 ± 0.0028 µM
same,IC50,[4]; cells preincubated with 50 mM glucose,0.0462 ± 0.0058 µM
same,Ki,[4]; cells pretreated with 50 mM glucose,0.0198 ± 0.0016 µM
same,Ki,[4]; control cells,0.0188 ± 0.0014 µM
same,PWT ratio,Male Swiss Webster mice [1]; no glucose – Strychnine 0.2 mg/kg,0.98 and 0.73 and 0.48 and 0.62 and 0.87 and 0.24 and 0.76 and 0.15
same,PWT ratio,Male Swiss Webster mice [1]; no glucose – Strychnine 0.5 mg/kg,0.17 and 1.46 and 0.19 and 0.30 and 0.14
same,time after which notable effects on pain sensitivity were gone,"Male Swiss Webster mice [1]; sub-lethal amounts of strychnine, IP",> 5 min
same,normalized time to response,"Male Swiss Webster mice [2]; strychnine 0.2 mg/kg IP, no glucose",0.63 ± 0.10
same,normalized response time,"Male Swiss Webster mice [2]; strychnine 0.5 mg/kg IP, no glucose",0.30 ± 0.07
same,lethality,"mice; 2 mg/kg IP, Swiss Webster mice, ref Maher et al., 2014",85%
same,LD50,"mice; intraperitoneal (IP) injection, ref Prasad et al., 1981",0.98 mg/kg
same,LD50,"mice; oral administration, ref Setnikar et al., 1960",2 mg/kg
"OC[C@H]1O[C@@](CO)(O[C@H]2O[C@H](CO)[C@@H](O)[C@H](O)[C@H]2O)[C@@H](O)[C@@H]1O [Sucrose, sucrose]",on-rate of current enhancement,GlyR,~ 1.5 h
